Experimental data: patent publication US20230390386A1, “REPLICATION-DEFECTIVE VACCINES AND USES THEREOF” (priority 2020, published 2023)

What was measured:
HCMV gDNA = assay: Analysis of CM-treated viral gDNA (agarose gel, EcoR1 digestion, 50° C. incubation); design: species or system human cytomegalovirus
Protocol: Analysis of CM and viral gDNA: To see any effect of CM on the HCMV gDNA, the gDNA was analyzed by agarose gel electrophoresis, restriction digestion, and thermal incubation at 50° C. The HCMV was grown in ARPE-19 cells and virus particles were purified through sucrose gradient using ultracentrifugation. HCMV gDNA was extracted and concentration was determined by OD at 260/280. Approximately, 10 μg of HCMV gDNA was incubated with 10 μM CM at RT for 1 hour and 10 μg of HCMV gDNA was treated with vehicle control without CM. The treated gDNA was analyzed by the agarose gel electrophoresis to see any effect of CM on the HCMV gDNA. In a separate experiment, the […] treated HCMV gDNA was incubated at 50° C. for 30 minutes to check the alkylation of DNA is thermolabile or not. Untreated HCMV gDNA was also treated similarly. In another, 3 μg of CM treated and untreated HCMV gDNA was digested with EcoR1 overnight at 37° C. and analyzed by 0.6% agarose gel electrophoresis.
To understand the mechanism behind CM mediated attenuation of the virus, CM-treated viral gDNA was analyzed using agarose gel electrophoresis, restriction digestion, and heat-labile fragmentation assays. The AD169 viral gDNA was treated with 1 μM CM for two hours at RT and then separated with a 0.6% agarose gel. Untreated AD169 viral gDNA was used as a control. […] To further understand the effect of CM on the viruses, viral gDNA was isolated and treated with CM for two hours at RT followed by digestion with the restriction enzymes EcoR1. […] However, the CM treated viruses were alkylated efficiently as compared to the control which was observed by the DNA fragmentation during incubation at 50° C. while control untreated viruses have intact DNA (FIG. 3C).

VZV-Luc [1] = assay: CM treated VZV-Luc growth in human fetal skin implants of SCID-hu mouse model; assay type: in vivo; conditions: for VZV growth in implanted skin tissues: 10^3 PFU, 12 days
Excerpt: SCID mice of arbitrary sex, 6-8 weeks old were used to produce the SCID-hu mouse model by implanting human fetal skin under the mouse skin as described previously to study the therapeutic efficacy of CM on the VZV replication and attenuation. The human fetal skin tissues were acquired from Advance Biosciences Resources (Alameda, CA) and processed as described previously (Selariu, Anca et al. “ORF7 of varicella-zoster virus is a neurotropic factor.” Journal of virology vol. 86, 16 (2012): 8614-24.). The VZV-Luc was treated with CM of 10.0 μM, and 1.0 μM followed by washing with DMEM media to remove CM. The acyclovir (30 mg/kg) was used as a positive control. VZV-Luc treated with drug vehicle was used as a mock. The viral load was determined every 48 hours as total photon counts in the infected implanted tissues. The total photon counts were determined using IVIS imaging of infected animals as represented in FIGS. 10A and 10B. The image of one mouse from each group is shown in FIG. 10B after 12 days of post-treatment. Four weeks after implantation, the implanted human tissues were surgically exposed and inoculated with 10^3 PFU of VZV-Luc. Luciferase activity within the implants was measured every 48 h for 12 days using the IVIS200 imaging system and Live Image software.

E. coli = E. coli growth assay (OD) after CM treatment; assay type: cell-based; conditions: two hours at RT
Protocol: […] Replicate samples were performed in triplicate. The treated bacterial cells were then added to 96 well, round-bottom plates, which were then incubated at 37° C. in a shaking incubator. The bacterial OD was measured in Glomax Explorer (Promega) every hour to determine the bacterial growth.
In order to observe the effect of CM on the rate of bacterial growth, a series of studies were conducting observing cultures of treated E. coli (FIG. 7). […] Each treatment condition was repeated in triplicate. The treated E. coli were then added to 96 well round-bottom plates, and cultured at 37° C. in a shaking incubator. The bacterial OD was measured by a Glomax Explorer (Promega) every hour to determine the rate bacterial growth. […] Each data point on the graph in FIG. 7 represents the average of three separate measurements.

AD169-GFP = AD169-GFP fluorescence microscopy in ARPE-19 cells after CM treatment of virus; assay type: cell-based, human cytomegalovirus
Protocol: Fluorescence microscopy: The AD169-GFP viruses were incubated with 100 μM, 10 μM, 1.0 μM, and 0.1 μM of centanamycin as described above. After treatment, the AD169-GFP viruses were washed 3 times with the cDMEM and added to the ARPE-19 cells at an MOI of 0.05. The virus growth was analyzed every day by fluorescence microscopy. In a control experiment, the viruses were only treated with the PET vehicle.
To understand the pathology of CM treated virus, a GFP-expressing human cytomegalovirus, AD169-GFP, was used with microscopic imaging to visually assess the ability of treated viruses to infect cell.

VZV-Luc [2] = assay: Cell-free VZV-Luc growth curve in ARPE-19 cells after CM treatment; assay type: cell-based, varicella zoster virus; conditions: for VZV-Luc growth and spread: two hours at RT, ARPE-19 cells
Protocol: Cell-free Varicella-zoster virus (VZV) treatment with the CM: VZV is a cell-associated virus. The efficacy of CM on VZV was checked using growth curve analysis. VZV-GFP-Luc was used to check the effect of CM on the virus. The ARPE-19 cells were seeded in 6-well plate and maintained at 37° C. and 5% CO2. The cell-free virus was treated with different concentration of CM (centanamycin (100 μM, 10 μM, and 0.1 μM) for two hours at RT and washed with three times with cDMEM prior to adding to the cells. The virus load in the infected cells was determined by adding luciferin substrate and measuring relative luciferase units every 24 hours of post-infection. The control included the cells infected with the virus without CM treatment. Viability of infected cells was quantified using the Cell Counting Kit-8 (Sigma# 96992) according to the manufacturers protocol.
Subsequent studies then evaluated the effect of CM treatment on the replication and growth of human alphaherpesvirus-3, also known as varicella zoster virus (VZV), under in vitro conditions in human epithelial ARPE-19 cells. The VZV is a highly cell associated virus and it is transmitted by cell-cell spread. The cell-free, luciferase-expressing VZV-Luc was treated with different concentration of CM (100 μM, 10 μM, 1.0 μM, and 0.1 μM) for two hours at RT. After two hours, the virus was added to the ARPE-19 cells. […] As compared to the CMV which can be attenuated with 1 μM CM, VZV is attenuated with 10 μM CM and this is because VZV is a cell associated virus and CM needs to cross the cell membrane to bind the virus and completely attenuates the VZV.

[3] = VZV-Luc treated with 10.0 μM CM

For COc1cc2cc(C(=O)Nc3cc(N)c4ccccc4c3CCCl)[nH]c2c(OC)c1OC [CM, centanamycin], which “Viral gDNA bands on 0.6% agarose gel, treated versus untreated” value (HCMV gDNA; AD169 viral gDNA, 1 μM CM, two hours at RT) is on record?
The value was “no big differences in the viral gDNA bands, mobility, and gel pattern”.

What about the “EcoR1 digestion pattern of CM treated viral gDNA” value (HCMV gDNA; CM two hours at RT, then EcoR1) of the same compound?
The value was “no major missing bands”.

And the “Thermolabile alkylation: state of CM treated viral DNA on incubation at 50° C.” value (HCMV gDNA; incubation at 50° C.)?
Its value is “experienced fragmentation at 50 °C”.

And the “VZV growth in implanted skin tissues” value (VZV-Luc [1]; VZV-Luc treated with 1.0 μM CM)?
The value was “growing very slowly and have growth defects”.

And the “Luciferase activity (viral load) in implanted tissues” value (VZV-Luc [1]; [3])?
The value was “no luciferase activity in implanted tissues”.

What about the “VZV growth in implanted skin tissues” value (VZV-Luc [1]; [3]) of the same compound?
Its value is “did not grow in skin implants”.

And the “E. coli growth in culture (OD)” value (E. coli; 0.01 μM CM)?
Its value is “able to grow slowly in the culture”.

What about the “E. coli growth in culture (OD)” value (E. coli; 0.1 μM CM) of the same compound?
Its value is “able to grow slowly in the culture”.

What about the “E. coli growth in culture (OD)” value (E. coli; 10 μM CM) of the same compound?
Its value is “did not grow”.

What about the “E. coli growth in culture (OD)” value (E. coli; 100 μM CM) of the same compound?
Its value is “did not grow in the culture”.

What about the “AD169-GFP infection and replication (GFP fluorescence)” value (“AD169-GFP infection and replication” for short) (AD169-GFP; virus treated with 1 μM CM) of the same compound?
The value was “detected in the infected cells but did not replicate”.

What about the “AD169-GFP infection and replication” value (AD169-GFP; virus treated with 10 μM CM) of the same compound?
Its value is “not able to infect the cells”.

And the “AD169-GFP infection and replication” value (AD169-GFP; virus treated with 100 μM CM)?
Its value is “not detected in the infected cells”.

What about the “CM concentration that attenuates VZV” value (VZV-Luc [2]) of the same compound?
The value was 10 µM.

And the “VZV-Luc growth and spread” value (VZV-Luc [2]; cell-free virus treated with 0.1 μM CM)?
Its value is “infect as well as spread to the adjacent cells but with reduced growth”.

And the “VZV-Luc growth and spread” value (VZV-Luc [2]; cell-free virus treated with 1.0 μM CM)?
The value was “infect as well as spread to the adjacent cells but with reduced growth”.

And the “VZV-Luc growth and spread” value (VZV-Luc [2]; cell-free virus treated with 10.0 μM CM)?
The value was “allowed the virus to infect the cells but not to spread to the adjacent cells”.

And the “VZV-Luc growth and spread” value (VZV-Luc [2]; cell-free virus treated with 100 μM CM)?
The value was “completely inhibit the growth as well as replication”.
